Test results taken from BindingDB's records for doi:10.1021/jm050280z (Uppsala University, 2005).
Starred links: 1 amine or outer side, 2 acyl side, 3 side chain; linkers in the order of their positions; H or OH if unused. Non-standard residues stand in square brackets, D forms with d. Residues, ends and D or L forms follow the SMILES beside them. X2 = O=C(c1cc(CN[*:1])cc(Cc2ccc(O)cc2)c1)[*:2]; X1 = O=C(c1cc(Cc2ccc(O)cc2)cc(N[*:1])c1)[*:2]

Target: Type-2 angiotensin II receptor (Sus scrofa)
Test: Binding affinity for angiotensin II receptor, type 2 in pig uterus myometrium using [125I]-Ang II as radioligand, in pH 7.4 Tris-HCl buffer for 1.5 hr at 25 degree C

SMILES: CC(C)[C@H](NC(=O)[C@H](CCCNC(=N)N)NC(=O)[C@@H](N)CC(=O)O)C(=O)NCc1cc(Cc2ccc(O)cc2)cc(C(=O)N[C@@H](Cc2cnc[nH]2)C(=O)N2CCC[C@H]2C(=O)N[C@@H](Cc2ccccc2)C(=O)O)c1 [(S)-3-Amino-N-((S)-1-{1-[(S)-3-[2-[2-((S)-(S)-1-carboxy-2-phenyl-ethylcarbamoyl)-pyrrolidin-1-yl]-1-(3H-imidazol-4-ylmethyl)-2-oxo-ethylcarbamoyl]-5-(4-hydroxy-benzyl)-benzylcarbamoyl]-2-methyl-propylcarbamoyl}-4-guanidino-butyl)-succinamic acid] (H-DRV[X2]HPF-OH)
- Ki: 1.85 nM

SMILES: N=C(N)NCCC[C@H](NC(=O)[C@@H](N)CC(=O)O)C(=O)Nc1cc(Cc2ccc(O)cc2)cc(C(=O)N[C@@H](Cc2cnc[nH]2)C(=O)N2CCC[C@H]2C(=O)N[C@@H](Cc2ccccc2)C(=O)O)c1 [(S)-3-Amino-N-{(S)-1-[3-[(S)-2-[2-((S)-(S)-1-carboxy-2-phenyl-ethylcarbamoyl)-pyrrolidin-1-yl]-1-(3H-imidazol-4-ylmethyl)-2-oxo-ethylcarbamoyl]-5-(4-hydroxy-benzyl)-phenylcarbamoyl]-4-guanidino-butyl}-succinamic acid] (H-DR[X1]HPF-OH)
- Ki: 41.3 nM

SMILES: N=C(N)NCCC[C@H](NC(=O)[C@@H](N)CC(=O)O)C(=O)NCc1cc(Cc2ccc(O)cc2)cc(C(=O)N[C@@H](Cc2cnc[nH]2)C(=O)N2CCC[C@H]2C(=O)N[C@@H](Cc2ccccc2)C(=O)O)c1 [(S)-3-Amino-N-{(S)-1-[3-[(S)-2-[2-((S)-(S)-1-carboxy-2-phenyl-ethylcarbamoyl)-pyrrolidin-1-yl]-1-(3H-imidazol-4-ylmethyl)-2-oxo-ethylcarbamoyl]-5-(4-hydroxy-benzyl)-benzylcarbamoyl]-4-guanidino-butyl}-succinamic acid] (H-DR[X2]HPF-OH)
- Ki: 10.1 nM

SMILES: CC(C)[C@H](NC(=O)[C@H](CCCNC(=N)N)NC(=O)[C@@H](N)CC(=O)O)C(=O)Nc1cc(Cc2ccc(O)cc2)cc(C(=O)N[C@@H](Cc2cnc[nH]2)C(=O)N2CCC[C@H]2C(=O)N[C@@H](Cc2ccccc2)C(=O)O)c1 [(S)-3-Amino-N-((S)-1-{(S)-1-[(S)-3-[2-[2-((S)-(S)-1-carboxy-2-phenyl-ethylcarbamoyl)-pyrrolidin-1-yl]-1-(3H-imidazol-4-ylmethyl)-2-oxo-ethylcarbamoyl]-5-(4-hydroxy-benzyl)-phenylcarbamoyl]-2-methyl-propylcarbamoyl}-4-guanidino-butyl)-succinamic acid] (H-DRV[X1]HPF-OH)
- Ki: 9.8 nM
